From paper PMC12274840 (The Journal of Biological Chemistry, 2025)
Several values for one entry are separate records, joined by “and”; a condition that tells them apart may be missing. Identical values can stand only once.

Columns and labels:
BlaC I105R [1] = target: T1, BlaC I105R (Mycobacterium tuberculosis, UniProt P9WKD3, I117R); type: biochemical; settings: pH 6.4
BlaC I105R [2] = target: T1, BlaC I105R; type: biochemical

How did the kcat (BlaC I105R [1]) turn out when CC1(C)S[C@@H]2[C@H](NC(=O)C(C(=O)O)c3ccccc3)C(=O)N2[C@H]1C(=O)O (stereo partly drawn) [carbenicillin] was run?
The kcat was 0.27 ± 0.01 s⁻¹.

Which results are given for O=C(Cc1cccs1)N[C@@H]1C(=O)N2C(C(=O)O)=C(/C=C/c3ccc([N+](=O)[O-])cc3[N+](=O)[O-])CS[C@H]12 [nitrocefin]?
kcat (BlaC I105R [1]): 24 ± 2 s⁻¹; ka (BlaC I105R [2]): 0.18 µM⁻¹ s⁻¹; kc (BlaC I105R [2]): 40 s⁻¹ and 57 s⁻¹

With O=C(O)[C@H]1/C(=C/CO)O[C@@H]2CC(=O)N21 [clavulanic acid] as the compound, how does the “in vitro sensitivity to inhibition compared with wild type” value (BlaC I105R [2]) read?
Its value is “less sensitive”.

What about the k1 (BlaC I105R [2]) of the same compound?
Its k1 is 1 µM⁻¹ s⁻¹.

And the k2 (BlaC I105R [2])?
The k2 was 4.6 and 4.6 10^−2 s^−1.

And the k3 (BlaC I105R [2])?
Its k3 is 2 and 2 10^−3 s^−1.

With CC1(C)S[C@@H]2[C@H](NC(=O)[C@H](N)c3ccccc3)C(=O)N2[C@H]1C(=O)O [ampicillin] as the compound, how does the kcat (BlaC I105R [1]) read?
The kcat was 3.4 ± 0.1 s⁻¹.

With NC(=O)[C@@H]1CC[C@@H]2CN1C(=O)N2OS(=O)(=O)O [avibactam] as the compound, how does the “in vitro sensitivity to inhibition compared with wild type” value (BlaC I105R [2]) read?
Its value is “less sensitive”.

What about the k2 (BlaC I105R [2]) of the same compound?
Its k2 is 9.5 and 9.5 10^−2 s^−1.

What about the k-2 (BlaC I105R [2]) of the same compound?
The k-2 was 0.1 and 0.1 10^−3 s^−1.
